Measurements as given in PubChem BioAssay AID248 (DTP/NCI, 2004).
Several values for one entry are separate records, joined by “and”; a condition that tells them apart may be missing. Equal values may be shown once. Inconclusive results and toxic doses are left out. Cut-off read from the data, not from the text of the source: active = T/C of 150% or more; inactive = T/C below 125%.

Tested on: L1210 leukemia ip in BDF1 mice, survival T/C
Experiment: NCI In Vivo Anticancer Drug Screen. Data for tumor model L1210 Leukemia (intraperitoneal) in B6D2F1 (BDF1) mice
Settings: endpoint: mean survival time, higher = longer survival
Summary of the method: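 Each compound was tested against a transplantable tumor grown in mice. The endpoint was survival, with treated animals benchmarked against vehicle controls as a simple ratio.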

[1] = dose: 100.0 mg/kg/injection, schedule: Q04DX003 (ip), vehicle: saline with Tween-80
[2] = dose: 200.0 mg/kg/injection, schedule: Q04DX003 (ip), vehicle: saline with Tween-80
[3] = dose: 400.0 mg/kg/injection, schedule: Q04DX003 (ip), vehicle: saline with Tween-80
[4] = dose: 100.0 mg/kg/injection, schedule: Q01DX009 (ip), vehicle: saline with Tween-80
[5] = dose: 200.0 mg/kg/injection, schedule: Q01DX009 (ip), vehicle: saline with Tween-80
[6] = dose: 400.0 mg/kg/injection, schedule: Q01DX009 (ip), vehicle: saline with Tween-80
[7] = dose: 100.0 mg/kg/injection, schedule: Q01DX009 (ip), vehicle: Klucel (hydroxypropylcellulose) (HPC)
[8] = dose: 200.0 mg/kg/injection, schedule: Q01DX009 (ip), vehicle: Klucel (hydroxypropylcellulose) (HPC)
[9] = dose: 400.0 mg/kg/injection, schedule: Q01DX009 (ip), vehicle: Klucel (hydroxypropylcellulose) (HPC)
[10] = dose: 100.0 mg/kg/injection, schedule: Q01DX001 (ip), vehicle: carboxymethylcellulose (CMC)
[11] = dose: 200.0 mg/kg/injection, schedule: Q01DX001 (ip), vehicle: carboxymethylcellulose (CMC)
[12] = dose: 400.0 mg/kg/injection, schedule: Q01DX001 (ip), vehicle: carboxymethylcellulose (CMC)
[13] = dose: 50.0 mg/kg/injection, schedule: Q01DX009 (ip), vehicle: Klucel (hydroxypropylcellulose) (HPC)
[14] = dose: 100.0 mg/kg/injection, schedule: Q01DX001 (ip), vehicle: saline
[15] = dose: 200.0 mg/kg/injection, schedule: Q01DX001 (ip), vehicle: saline
[16] = dose: 400.0 mg/kg/injection, schedule: Q01DX001 (ip), vehicle: saline

Measured: T/C

O=C(CCCCCCCCC(=O)Nc1cccc(C2=NCCN2)c1)Nc1cccc(C2=NCCN2)c1
inactive: dose: 2.5 mg/kg/injection, schedule: Q01DX Z (ip), vehicle: saline 95 % of control | dose: 5.0 mg/kg/injection, schedule: Q01DX Z (ip), vehicle: saline 91 % of control | dose: 10.0 mg/kg/injection, schedule: Q01DX Z (ip), vehicle: saline 91 % of control

Nc1cc(Cl)ccc1S(N)(=O)=O
inactive: dose: 100.0 mg/kg/injection, schedule: Q01DX009 (ip), vehicle: saline 92 % of control | [1] 105 % of control | dose: 200.0 mg/kg/injection, schedule: Q01DX009 (ip), vehicle: saline 100 % of control | [2] 105 % of control | dose: 400.0 mg/kg/injection, schedule: Q01DX009 (ip), vehicle: saline 111 % of control | [3] 108 % of control

CCCCCCCCCCCCCCCC(=O)CCCCCCCCCCCCCCC
inactive: dose: 100.0 mg/kg/injection, schedule: Q01DX001 (ip), vehicle: other 94 % of control | dose: 200.0 mg/kg/injection, schedule: Q01DX001 (ip), vehicle: other 100 % of control | dose: 400.0 mg/kg/injection, schedule: Q01DX001 (ip), vehicle: other 97 % of control

Cc1cc(-c2ccc(NC(=O)N(C)C)c(C)c2)ccc1NC(=O)N(C)C
inactive: dose: 100.0 mg/kg/injection, schedule: Q04DX002 (ip), vehicle: saline with Tween-80 100 % of control | dose: 200.0 mg/kg/injection, schedule: Q04DX002 (ip), vehicle: saline with Tween-80 114 % of control | dose: 400.0 mg/kg/injection, schedule: Q04DX002 (ip), vehicle: saline with Tween-80 96 % of control

CCC(=O)O[C@H]1CC[C@H]2[C@@H]3C[C@H](F)C4=CC(=O)CC[C@]4(C)[C@H]3CC[C@]12C
inactive: [4] 102 % of control | [5] 93 % of control | [6] 91 % of control

CCC(C)NC(=O)Nc1cccc(Cl)c1C (configuration not stated)
inactive: [4] 86 % of control | [1] 90 % of control | [2] 95 % of control | [6] 89 % of control | [3] 103 % of control

C[CH2][Hg][I]
inactive: dose: 25.0 mg/kg/injection, schedule: Q04DX002 (ip), vehicle: saline with Tween-80 95 % of control | dose: 50.0 mg/kg/injection, schedule: Q04DX002 (ip), vehicle: saline with Tween-80 97 % of control

Clc1ccc(S/C=C/c2ccccc2)cc1
inactive: dose: 100.0 mg/kg/injection, schedule: Q01DX001 (ip), vehicle: Klucel (hydroxypropylcellulose) (HPC) 103 % of control | [7] 91 % of control | dose: 100.0 mg/kg/injection, schedule: Q04DX003 (ip), vehicle: Klucel (hydroxypropylcellulose) (HPC) 102 % of control | dose: 200.0 mg/kg/injection, schedule: Q01DX001 (ip), vehicle: Klucel (hydroxypropylcellulose) (HPC) 110 % of control | [8] 100 % of control | dose: 200.0 mg/kg/injection, schedule: Q04DX003 (ip), vehicle: Klucel (hydroxypropylcellulose) (HPC) 98 % of control | dose: 400.0 mg/kg/injection, schedule: Q01DX001 (ip), vehicle: Klucel (hydroxypropylcellulose) (HPC) 97 % of control | [9] 91 % of control | dose: 400.0 mg/kg/injection, schedule: Q04DX003 (ip), vehicle: Klucel (hydroxypropylcellulose) (HPC) 104 % of control

O=[N+]([O-])c1ccc(O)c(/C=N\NC(=S)Nc2ccc3cn[nH]c3c2)c1
inactive: dose: 50.0 mg/kg/injection, schedule: Q01DX001 (ip), vehicle: carboxymethylcellulose (CMC) 97 % of control | [10] 103 % of control | [11] 93 % of control | [12] 97 % of control

COc1ccc(Cl)cc1NC(=O)c1ccc(C(=O)Nc2cc(Cl)ccc2OC)cc1
inactive: [13] 109 % of control | [7] 90 % of control | [8] 86 % of control and 92 % of control | [9] 94 % of control

CCCCCCOC(=O)C1(C)OC1c1ccccc1 (configuration not stated)
inactive: dose: 100.0 mg/kg/injection, schedule: Q04DX002 (ip), vehicle: saline 112 % of control | dose: 200.0 mg/kg/injection, schedule: Q04DX002 (ip), vehicle: saline 104 % of control | dose: 400.0 mg/kg/injection, schedule: Q04DX002 (ip), vehicle: saline 93 % of control

Cn1c2c(c(=O)n(C)c1=O)NC1(N2)C(=O)Nc2ccccc21 (configuration not stated)
inactive: [14] 101 % of control | [15] 98 % of control | [16] 101 % of control

COC1C(O)C(C)OC(OC2CC3CCC4C(CCC5(C)C(C6=CC(=O)OC6)CCC45O)C3(C)C(OC(C)=O)C2)C1O (configuration not stated) (tested in a mixture with another compound)
inactive: dose: 25.0 mg/kg/injection, schedule: Q01DX009 (sc), vehicle: steriod suspending solution 101 % of control

COc1ccc(-c2cc(-c3ccccc3)[nH]c(=O)c2N(C)C)cc1
inactive: [10] 97 % of control | [11] 91 % of control | [12] 97 % of control

COC1=C(Br)C(=O)C(Br)=C(OC)C1=O
inactive: dose: 100.0 mg/kg/injection, schedule: Q04DX002 (ip), vehicle: other 107 % of control | dose: 200.0 mg/kg/injection, schedule: Q04DX002 (ip), vehicle: other 96 % of control

NC(=S)c1ccncc1
inactive: [4] 104 % of control | [1] 103 % of control | [5] 104 % of control | [2] 109 % of control | [6] 112 % of control | [3] 101 % of control

CC12CCC(=O)C=C1CCC1C2C(=O)CC2(C)C1CCC2(O)C(=O)COC(=O)c1cc([N+](=O)[O-])c(N2CC2)c([N+](=O)[O-])c1 (configuration not stated)
inactive: dose: 50.0 mg/kg/injection, schedule: Q01DX001 (sc), vehicle: steriod suspending solution 103 % of control | dose: 60.0 mg/kg/injection, schedule: Q01DX015 (ip), vehicle: saline 96 % of control | dose: 90.0 mg/kg/injection, schedule: Q01DX015 (ip), vehicle: saline 100 % of control | dose: 100.0 mg/kg/injection, schedule: Q01DX001 (sc), vehicle: steriod suspending solution 95 % of control | dose: 135.0 mg/kg/injection, schedule: Q01DX015 (ip), vehicle: saline 102 % of control | dose: 200.0 mg/kg/injection, schedule: Q01DX001 (sc), vehicle: steriod suspending solution 101 % of control | dose: 200.0 mg/kg/injection, schedule: Q01DX015 (ip), vehicle: saline 96 % of control | dose: 400.0 mg/kg/injection, schedule: Q01DX001 (sc), vehicle: steriod suspending solution 103 % of control

CCOCC(O)CO (configuration not stated)
inactive: [14] 110 % of control | [15] 98 % of control | [16] 96 % of control

CCOC(=O)/C(O)=C\c1nc(OCC)nc(OCC)c1[N+](=O)[O-]
inactive: dose: 93.8 mg/kg/injection, schedule: Q04DX002 (ip), vehicle: Klucel (hydroxypropylcellulose) (HPC) 95 % of control | dose: 187.5 mg/kg/injection, schedule: Q04DX002 (ip), vehicle: Klucel (hydroxypropylcellulose) (HPC) 95 % of control | dose: 375.0 mg/kg/injection, schedule: Q04DX002 (ip), vehicle: Klucel (hydroxypropylcellulose) (HPC) 100 % of control

CN(C)c1ccc(/C=N\N=C/c2ccc(N(C)C)cc2)cc1
inactive: [13] 97 % of control | [7] 93 % of control | [8] 103 % of control
